EC50 data for 51 compounds are collected here from patent US12037333B2, “Pyridopyrazine and pyridotriazine inhibitors of influenza virus replication” (priority 2018, dated 2024).

The test system of one assay is Influenza type B (cell culture adapted strain B/Lee/40, ATCC VR-1535). Put plainly: Influenza antiviral assay: inhibition of virus-induced cytopathic effects (CPE) in MDCK cells, XTT dye reduction. The format is cell-based. Conditions: Influenza B virus, MDCK, 96 h, strain B/Lee/40, MDCK cells, CPE inhibition at 4 days. (Cytopathic effects are the visible damage that an infection or toxin causes in cultured cells.)
In turn, `Cc1cccc2c1CC1Cc3c(F)cccc3C21N1CN(C)C(=O)c2c(O)c(=O)ccn21` (stereo not drawn) [Compound A67] displayed an EC50 of less than 125 nM.
For `CC(C)N1CN(C23c4ccccc4CC2(C)Cc2ccccc23)n2ccc(=O)c(O)c2C1=O` (stereo not drawn) [Compound A50, 5-hydroxy-3-isopropyl-1-(9a-methyl-9a,10-dihydroindeno[1,2-a]inden-4b(9H)-yl)-2,3-dihydro-1H-pyrido[2,1-f] [1,2,4] triazine-4,6-dione], the EC50 is less than 125 nM.
`CN1CN(C23c4ccccc4CC2Cc2ccc(F)cc23)n2ccc(=O)c(O)c2C1=O` (stereo not drawn) [Compound A53] gave a concentration for a half-maximal effect (EC50) of less than 125 nM.
On the same count and under the same terms, as for `CN1C(=O)c2c(O)c(=O)ccn2N(C23c4cccc(F)c4CC2Cc2c(F)cccc23)C1CO` (stereo not drawn) [Compound A59], the figure is less than 125 nM; as for `CN1C(=O)c2c(O)c(=O)ccn2N(C23C(=Cc4c(F)cccc42)Cc2c(F)cccc23)C1CN` (stereo not drawn) [Compound A106, 2-(aminomethyl)-1-(1,8-difluoroindeno[1,2-a]inden-4b(9H)-yl)-5-hydroxy-3-methyl-2,3-dihydro-1H-pyrido[2,1-f][1,2,4]triazine-4,6-dione], less than 125 nM.
As to `O=C1c2c(O)c(=O)ccn2N(C23c4ccccc4CC2Cc2cc(F)c(F)cc23)CN1Cc1ccccc1` (stereo not drawn) [Compound A21, 3-benzyl-1-(2,3-difluoro-9a,10-dihydroindeno[1,2-a]inden-4b(9H)-yl)-5-hydroxy-2,3-dihydro-1H-pyrido[2,1-f][1,2,4]triazine-4,6-dione], the EC50 was less than 125 nM.
Same read-out and setting: as for `O=C1c2c(O)c(=O)ccn2N(C23c4ccccc4CC2Cc2c3ccc(F)c2F)CN1CC1CCCCC1` (stereo not drawn) [Compound A99], the figure is 250 to 375 nM.
The same measure, in the same setting: as for `CCC1N(C)C(=O)c2c(O)c(=O)ccn2N1C12c3ccccc3CC1Cc1ccccc12` (stereo not drawn) [Compound A166], the figure is less than 125 nM; as for `CC1N(CC2CC2)C(=O)c2c(O)c(=O)ccn2N1C12c3ccccc3CC1Cc1c(Cl)cccc12` (stereo not drawn) [Compound A140], 250 to 375 nM.
Still for that read-out and setting: the result for `CN1CN(C23c4ccccc4CC2Cc2ccccc23)n2ccc(=O)c(O)c2C1=O` (stereo not drawn) [Compound A1, 1-(9a, 10-dihydroindeno[1,2-a]inden-4b(9H)-yl)-5-hydroxy-3-methyl-2,3-dihydro-1H-pyrido[2,1-f][1,2,4]triazine-4,6-dione] reads 250 to 375 nM; that for `CC(C)CN1CN(C23c4cccc(F)c4CC2Cc2c(F)cccc23)n2ccc(=O)c(O)c2C1=O` (stereo not drawn) [Compound A156], 125 to 250 nM; that for `O=C1c2c(O)c(=O)ccn2N(C23c4ccccc4CC2Cc2c(F)cccc23)CN1CCF` (stereo not drawn) [Compound A68], less than 125 nM.
As for `O=C1c2c(O)c(=O)ccn2N(C23c4ccccc4CC2Cc2c3ccc(F)c2F)CN1CCF` (stereo not drawn) [Compound A74], the EC50 was less than 125 nM.
The same measure, in the same setting: the result for `Cc1ccc2c(c1F)CC1Cc3ccccc3C21N1CN(C)C(=O)c2c(O)c(=O)ccn21` (stereo not drawn) [Compound A85] reads 250 to 375 nM.
As to `COCCN1CN(C23c4ccccc4CC2Cc2c3ccc(F)c2F)n2ccc(=O)c(O)c2C1=O` (stereo not drawn) [Compound A70], the concentration for a half-maximal effect (EC50) was less than 125 nM.
Consider `O=C1c2c(O)c(=O)ccn2N(C23c4ccccc4CC2Cc2cc(F)c(F)cc23)CN1CCc1ccc(F)cc1` (stereo not drawn) [Compound A29, 1-(2,3-difluoro-9a,10-dihydroindeno[1,2-a]inden-4b(9H)-yl)-3-(4-fluorophenethyl)-5-hydroxy-2,3-dihydro-1H-pyrido[2,1-f][1,2,4]triazine-4,6-dione], for which the EC50 lay in the range of 250 to 375 nM.
As to `O=C1c2c(O)c(=O)ccn2N(C23c4cccc(F)c4CC2Cc2c(F)cccc23)CN1CCF` (stereo not drawn) [Compound A58], the EC50 was less than 125 nM.
On the same count and under the same terms, as for `CCN1C(=O)c2c(O)c(=O)ccn2N(C23c4ccccc4CC2Cc2c(F)cccc23)C1C` (stereo not drawn) [Compound A138], the figure is less than 125 nM; as for `CC1N(CC2CC2)C(=O)c2c(O)c(=O)ccn2N1C12c3ccccc3CC1Cc1c(F)cccc12` (stereo not drawn) [Compound A129], 125 to 250 nM.
Compound `CCN1CN(C23c4ccccc4CC2Cc2c3ccc(Cl)c2Cl)n2ccc(=O)c(O)c2C1=O` (stereo not drawn) [Compound A161] showed an EC50 of less than 125 nM.
Still for that read-out and setting: as for `CN1CN(C23c4cccc(F)c4CC2Cc2c(F)cccc23)n2ccc(=O)c(O)c2C1=O` (stereo not drawn) [Compound A12, 1-(1,8-Difluoro-9a,10-dihydro-9H-indeno[1,2-a]inden-4b-yl)-5-hydroxy-3-methyl-2,3-dihydro-1H-pyrido[2,1-f][1,2,4]triazine-4,6-dione], the figure is more than 500 nM; as for `CCN1CN(C23c4ccccc4CC2(C)Cc2cc(F)ccc23)n2ccc(=O)c(O)c2C1=O` (stereo not drawn) [Compound A116], less than 125 nM.
Same read-out and setting: as for `O=C1c2c(O)c(=O)ccn2N(C23c4ccccc4CC2Cc2c3ccc(F)c2F)CN1Cc1cccc(F)c1` (stereo not drawn) [Compound A26, 1-(1,2-difluoro-9a,10-dihydroindeno[1,2-a]inden-4b(9H)-yl)-3-(3-fluorobenzyl)-5-hydroxy-2,3-dihydro-1H-pyrido[2,1-f][1,2,4]triazine-4,6-dione], the figure is 250 to 375 nM.
On the same count and under the same terms, the result for `CN1CN(C23c4ccccc4CC2(C)Cc2cc(F)ccc23)n2ccc(=O)c(O)c2C1=O` (stereo not drawn) [Compound A126] reads less than 125 nM; that for `Cc1cc(CN2CN(C34c5ccccc5CC3Cc3ccccc34)n3ccc(=O)c(O)c3C2=O)no1` (stereo not drawn) [Compound A144], less than 125 nM; that for `O=C1c2c(O)c(=O)ccn2N(C23c4ccccc4CC2Cc2c3ccc(F)c2F)CN1CCc1ccccc1` (stereo not drawn) [Compound A25, 1-(1,2-difluoro-9a,10-dihydroindeno[1,2-a]inden-4b(9H)-yl)-5-hydroxy-3-phenethyl-2,3-dihydro-1H-pyrido[2,1-f][1,2,4]triazine-4,6-dione], 375 to 500 nM.
`CC1N(CCF)C(=O)c2c(O)c(=O)ccn2N1C12c3ccccc3CC1Cc1c(F)cccc12` (stereo not drawn) [Compound A121]: the EC50 lay within 125 to 250 nM.
On to `CC(C)CN1C(=O)c2c(O)c(=O)ccn2N(C23c4ccccc4CC2Cc2c(Cl)cccc23)C1C` (stereo not drawn) [Compound A118], for which the EC50 lay within 250 to 375 nM.
In turn, `COCCN1CN(C23c4ccccc4CC2Cc2c(Cl)cccc23)n2ccc(=O)c(O)c2C1=O` (stereo not drawn) [Compound A101] had an EC50 of less than 125 nM.
On the same count and under the same terms, as for `CC1N(CC(F)F)C(=O)c2c(O)c(=O)ccn2N1C12c3ccccc3CC1Cc1c2ccc(F)c1F` (stereo not drawn) [Compound A136], the figure is 250 to 375 nM; as for `CCN1CN(C23c4ccccc4CC2(CC)Cc2c3ccc(F)c2F)n2ccc(=O)c(O)c2C1=O` (stereo not drawn) [Compound A56], less than 125 nM; as for `O=C1c2c(O)c(=O)ccn2N(C23c4cccc(F)c4CC2Cc2c(F)cccc23)CN1CC(F)F` (stereo not drawn) [Compound A71], less than 125 nM.
The same measure, in the same setting: as for `CCOC12Cc3ccccc3C1(N1CN(CC)C(=O)c3c(O)c(=O)ccn31)c1ccccc1C2` (stereo not drawn) [Compound A48, 1-(9a-Ethoxy-9a,10-dihydroindeno[1,2-a]inden-4b(9H)-yl)-3-ethyl-5-hydroxy-2,3-dihydro-1H-pyrido[2,1-f][1,2,4]triazine-4,6-dione], the figure is less than 125 nM.
The same measure, in the same setting: as for `O=C1c2c(O)c(=O)ccn2N(C23c4ccccc4CC2Cc2cc(F)c(F)cc23)CN1CC1CCOCC1` (stereo not drawn) [Compound A16, 1-(2,3-Difluoro-9a,10-dihydro-9H-indeno[1,2-a]inden-4b-yl)-5-hydroxy-3-(tetrahydro-pyran-4-ylmethyl)-2,3-dihydro-1H-pyrido[2,1-f][1,2,4]triazine-4,6-dione], the figure is less than 125 nM; as for `CC1N(C)C(=O)c2c(O)c(=O)ccn2N1C12c3cccc(F)c3CC1Cc1c(F)cccc12` (stereo not drawn) [Compound A73], less than 125 nM; as for `CC1N(CC(F)F)C(=O)c2c(O)c(=O)ccn2N1C12c3ccccc3CC1Cc1c(F)cccc12` (stereo not drawn) [Compound A139], 125 to 250 nM.
For the compound `CN1CN(C23c4ccccc4CC2Cc2c3ccc(Cl)c2F)n2ccc(=O)c(O)c2C1=O` (stereo not drawn) [Compound A160], the EC50 is less than 125 nM.
Still for that read-out and setting: the result for `CCC12Cc3ccccc3C1(N1CN(C)C(=O)c3c(O)c(=O)ccn31)c1ccccc1C2` (stereo not drawn) [Compound A162] reads less than 125 nM.
Still for that read-out and setting: the result for `O=C1c2c(O)c(=O)ccn2N(C23c4ccccc4CC2Cc2c3ccc(F)c2F)CN1CC1CC1` (stereo not drawn) [Compound A9, 3-Cyclopropylmethyl-1-(1,2-difluoro-9a,10-dihydro-9H-indeno[1,2-a]inden-4b-yl)-5-hydroxy-2,3-dihydro-1H-pyrido[2,1-f][1,2,4]triazine-4,6-dione] reads 125 to 250 nM; that for `COCCN1C(=O)c2c(O)c(=O)ccn2N(C23c4ccccc4CC2Cc2c3ccc(F)c2F)C1C` (stereo not drawn) [Compound A113], 125 to 250 nM; that for `O=C1c2c(O)c(=O)ccn2N(C23c4ccccc4CC2Cc2c(Cl)cccc23)CN1CC1CCC1` (stereo not drawn) [Compound A112], 250 to 375 nM.
Still for that read-out and setting: as for `O=C1c2c(O)c(=O)ccn2N(C23c4ccccc4CC2Cc2c(Cl)cccc23)CN1CCCF` (stereo not drawn) [Compound A102], the figure is less than 125 nM; as for `O=C1c2c(O)c(=O)ccn2N(C23c4cccc(F)c4CC2Cc2c(F)cccc23)CN1CCCF` (stereo not drawn) [Compound A72], less than 125 nM; as for `CCN1CN(C23c4ccccc4CC2Cc2c3ccc(F)c2F)n2ccc(=O)c(O)c2C1=O` (stereo not drawn) [Compound A14, 1-(1,2-Difluoro-9a,10-dihydro-9H-indeno[1,2-a]inden-4b-yl)-3-ethyl-5-hydroxy-2,3-dihydro-1H-pyrido[2,1-f][1,2,4]triazine-4,6-dione], 125 to 250 nM.
Take `COC12Cc3ccccc3C1(N1CN(C)C(=O)c3c(O)c(=O)ccn31)c1ccccc1C2` (stereo not drawn) [Compound A62]: the EC50 was less than 125 nM.
Still for that read-out and setting: as for `O=C1c2c(O)c(=O)ccn2N(C23c4ccccc4CC2Cc2c3ccc(F)c2F)CN1C1CC1` (stereo not drawn) [Compound A61], the figure is less than 125 nM; as for `CCN1CN(C23c4ccccc4CC2Cc2c(C)cccc23)n2ccc(=O)c(O)c2C1=O` (stereo not drawn) [Compound A82], 125 to 250 nM.

The same assay, now with this note: strain B/Lee/40, MDCK cells, CPE inhibition at 4 days.
As for `CCN1CN(C23c4cccc(F)c4CC2Cc2c(F)cccc23)n2ccc(=O)c(O)c2C1=O` (stereo not drawn) [Compound A34], the EC50 is more than 500 nM.
Still for that read-out and setting: as for `O=C1c2c(O)c(=O)ccn2N(C23c4ccccc4CC2Cc2c(Cl)cccc23)CN1CCF` (stereo not drawn) [Compound A114], the figure is 125 to 250 nM; as for `CC(CCN1CN(C23c4ccccc4CC2Cc2ccccc23)n2ccc(=O)c(O)c2C1=O)c1ccccc1` (stereo not drawn) [Compound A33], more than 500 nM.
`CCN1CN(C23c4ccccc4CC2Cc2c3ccc(F)c2F)n2ccc(=O)c(O)c2C1=O` (stereo not drawn) [Compound A45]: the EC50 is less than 125 nM.

One may read the EC50 as the concentration needed to bring the measured effect to its halfway point. A lower EC50 goes with greater potency.
